Data reported in ChEMBL document CHEMBL4477215, “Specific Correction of Alternative Survival Motor Neuron 2 Splicing by Small Molecules: Discovery of a Potential Novel Medicine To Treat Spinal Muscular Atrophy” (J Med Chem, 2016).

Legend:
Homo sapiens [1] = species: Homo sapiens; test: Inhibition of mRNA splicing of SMN2 exon 7 in fibroblasts derived from human SMA type 1/2/3 patient assessed as increase in SMN protein level after 48 hrs by HTRF assay
[2] = Mutagenicity in Salmonella typhimurium TA1535 assessed as increase in revertant colonies after 2 days in presence of rat liver S9 fraction by Ames test relative to control; assay type: toxicity; conditions: salmonella enterica subsp. enterica serovar typhimurium, s9, 48 h
[3] = Mutagenicity in Salmonella typhimurium TA98 assessed as increase in revertant colonies after 2 days in presence of rat liver S9 fraction by Ames test relative to control; assay type: toxicity; conditions: salmonella enterica subsp. enterica serovar typhimurium, s9, 48 h
[4] = Mutagenicity in Salmonella typhimurium TA97 assessed as increase in revertant colonies after 2 days in presence of rat liver S9 fraction by Ames test relative to control; assay type: toxicity; conditions: salmonella enterica subsp. enterica serovar typhimurium, s9, 48 h
[5] = Mutagenicity in Salmonella typhimurium TA100 assessed as increase in revertant colonies after 2 days in presence of rat liver S9 fraction by Ames test relative to control; assay type: toxicity; conditions: salmonella enterica subsp. enterica serovar typhimurium, s9, 48 h
[6] = Mutagenicity in Salmonella typhimurium TA102 assessed as increase in revertant colonies after 2 days in presence of rat liver S9 fraction by Ames test relative to control; assay type: toxicity; conditions: salmonella enterica subsp. enterica serovar typhimurium, s9, 48 h
Homo sapiens [7] = species: Homo sapiens; test: Inhibition of mRNA splicing of SMN2 exon 7 in GM03813 fibroblasts derived from human SMA type 1 patient after 24 hrs by RT-qPCR analysis
[8] = Octanol-aqueous phosphate buffer distribution coefficient, log D of the compound at pH 7.4 at 100 mM after 24 hrs by LC-MS based shake flask method; assay type: physicochemical
P-gp (ABCB1) = P-gp (ABCB1) (Homo sapiens, UniProt P08183); test: Substrate activity at human P-gp assessed as efflux ratio by cell based assay; conditions: not told
Sequence of P-gp (ABCB1) (P08183 whole entry): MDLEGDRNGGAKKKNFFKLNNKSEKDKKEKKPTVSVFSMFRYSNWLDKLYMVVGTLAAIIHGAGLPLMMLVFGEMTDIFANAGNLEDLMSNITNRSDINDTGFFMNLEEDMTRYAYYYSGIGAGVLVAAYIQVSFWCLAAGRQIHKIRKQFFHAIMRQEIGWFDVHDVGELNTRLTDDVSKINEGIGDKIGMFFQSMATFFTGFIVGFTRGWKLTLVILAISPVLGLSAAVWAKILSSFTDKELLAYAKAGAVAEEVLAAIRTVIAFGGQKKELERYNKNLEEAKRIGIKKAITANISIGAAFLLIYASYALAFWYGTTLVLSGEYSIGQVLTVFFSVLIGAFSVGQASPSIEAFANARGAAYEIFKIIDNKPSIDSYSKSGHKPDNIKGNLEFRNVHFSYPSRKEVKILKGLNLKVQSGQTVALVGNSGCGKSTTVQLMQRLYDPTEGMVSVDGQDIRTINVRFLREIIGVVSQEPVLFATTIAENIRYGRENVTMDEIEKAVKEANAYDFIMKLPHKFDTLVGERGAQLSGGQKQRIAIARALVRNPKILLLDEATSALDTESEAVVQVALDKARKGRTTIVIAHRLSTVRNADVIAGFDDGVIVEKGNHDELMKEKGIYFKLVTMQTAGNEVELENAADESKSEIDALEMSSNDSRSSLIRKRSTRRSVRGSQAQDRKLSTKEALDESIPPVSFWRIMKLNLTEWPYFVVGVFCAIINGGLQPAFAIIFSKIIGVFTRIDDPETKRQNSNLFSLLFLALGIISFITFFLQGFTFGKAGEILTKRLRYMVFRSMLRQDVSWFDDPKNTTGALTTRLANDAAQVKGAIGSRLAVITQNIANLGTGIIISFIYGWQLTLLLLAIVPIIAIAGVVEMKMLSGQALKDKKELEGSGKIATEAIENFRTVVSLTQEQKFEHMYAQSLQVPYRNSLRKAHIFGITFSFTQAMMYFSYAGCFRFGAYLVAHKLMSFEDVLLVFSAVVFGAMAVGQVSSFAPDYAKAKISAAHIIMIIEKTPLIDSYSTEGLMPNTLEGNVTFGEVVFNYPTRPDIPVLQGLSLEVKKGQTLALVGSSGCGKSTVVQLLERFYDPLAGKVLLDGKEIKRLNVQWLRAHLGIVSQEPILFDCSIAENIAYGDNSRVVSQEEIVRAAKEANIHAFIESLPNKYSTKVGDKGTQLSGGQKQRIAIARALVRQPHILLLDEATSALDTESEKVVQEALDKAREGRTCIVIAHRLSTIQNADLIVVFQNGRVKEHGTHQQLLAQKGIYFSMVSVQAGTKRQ

[9] = Clearance in rat at 2 mg/kg, iv; assay type: ADME, organism-based; conditions: in vivo
[10] = Half life in rat at 10 mg/kg, po; assay type: ADME, organism-based; conditions: in vivo
[11] = Oral bioavailability in rat at 10 mg/kg; assay type: ADME, organism-based; conditions: in vivo
[12] = Clearance in Cynomolgus monkey at 0.3 mg/kg, iv; assay type: ADME, organism-based, Macaca fascicularis; conditions: in vivo
[13] = Volume of distribution at steady state in Cynomolgus monkey at 0.3 mg/kg, iv; assay type: ADME, organism-based, Macaca fascicularis; conditions: in vivo, read-out: Vdss
[14] = Half life in Cynomolgus monkey at 1 mg/kg, po; assay type: ADME, organism-based, Macaca fascicularis; conditions: in vivo
[15] = Oral bioavailability in Cynomolgus monkey at 1 mg/kg; assay type: ADME, organism-based, Macaca fascicularis; conditions: in vivo
[16] = Fraction unbound in human plasma; assay type: ADME, cell-free
[17] = Fraction unbound in Cynomolgus monkey plasma; assay type: ADME, cell-free, Macaca fascicularis
[18] = Fraction unbound in rat plasma; assay type: ADME, cell-free
[19] = Fraction unbound in mouse plasma; assay type: ADME, cell-free
[20] = AUC in plasma of C/C-allele mouse harboring FVB.129(B6)-Smn1tm5(Smn1/SMN2)Mrph/J at 10 mg/kg, po; assay type: ADME, organism-based
[21] = Unbound AUC in plasma of C/C-allele mouse harboring FVB.129(B6)-Smn1tm5(Smn1/SMN2)Mrph/J at 10 mg/kg, po; assay type: ADME, organism-based; conditions: in vivo
Mus musculus [22] = test: Inhibition of mRNA splicing of SMN2 exon 7 in C/C-allele mouse harboring FVB.129(B6) Smn1tm5(Smn1/SMN2)Mrph/J assessed as increase in SMN protein level in brain at 1 mg/kg, po qd for 10 days measured 1 hr after 10th dose by HTRF assay relative to control; assay type: functional; set-up: scale not given: the % may be the effect or the level left
Mus musculus [23] = test: Inhibition of mRNA splicing of SMN2 exon 7 in C/C-allele mouse harboring FVB.129(B6) Smn1tm5(Smn1/SMN2)Mrph/J assessed as increase in SMN protein level in brain at 3 mg/kg, po qd for 10 days measured 1 hr after 10th dose by HTRF assay relative to control; assay type: functional; set-up: scale not given: the % may be the effect or the level left
Mus musculus [24] = test: Inhibition of mRNA splicing of SMN2 exon 7 in C/C-allele mouse harboring FVB.129(B6) Smn1tm5(Smn1/SMN2)Mrph/J assessed as increase in SMN protein level in brain at 10 mg/kg, po qd for 10 days measured 1 hr after 10th dose by HTRF assay relative to control; assay type: functional; set-up: scale not given: the % may be the effect or the level left
Mus musculus [25] = test: Inhibition of mRNA splicing of SMN2 exon 7 in C/C-allele mouse harboring FVB.129(B6) Smn1tm5(Smn1/SMN2)Mrph/J assessed as increase in SMN protein level in quadriceps at 1 mg/kg, po qd for 10 days measured 1 hr after 10th dose by HTRF assay relative to control; assay type: functional; set-up: scale not given: the % may be the effect or the level left
Mus musculus [26] = test: Inhibition of mRNA splicing of SMN2 exon 7 in C/C-allele mouse harboring FVB.129(B6) Smn1tm5(Smn1/SMN2)Mrph/J assessed as increase in SMN protein level in quadriceps at 3 mg/kg, po qd for 10 days measured 1 hr after 10th dose by HTRF assay relative to control; assay type: functional; set-up: scale not given: the % may be the effect or the level left
Mus musculus [27] = test: Inhibition of mRNA splicing of SMN2 exon 7 in C/C-allele mouse harboring FVB.129(B6) Smn1tm5(Smn1/SMN2)Mrph/J assessed as increase in SMN protein level in quadriceps at 10 mg/kg, po qd for 10 days measured 1 hr after 10th dose by HTRF assay relative to control; assay type: functional; set-up: scale not given: the % may be the effect or the level left
Mus musculus [28] = test: Inhibition of mRNA splicing of SMN2 exon 7 in C/C-allele mouse harboring FVB.129(B6) Smn1tm5(Smn1/SMN2)Mrph/J assessed as increase in SMN protein level in quadriceps administered orally qd for 10 days measured 1 hr after 10th dose by HTRF assay; assay type: functional, organism-based
Mus musculus [29] = test: Inhibition of mRNA splicing of SMN2 exon 7 in C/C-allele mouse harboring FVB.129(B6) Smn1tm5(Smn1/SMN2)Mrph/J assessed as increase in SMN protein level in brain administered orally po qd for 10 days measured 1 hr after 10th dose by HTRF assay; assay type: functional, organism-based
Mus musculus [30] = test: (§1) Inhibition of mRNA splicing of SMN2 exon 7 in neonatal delta7 mouse harboring FVB.Cg-Tg(SMN2 delta7)4299Ahmb Tg(SMN2)-89Ahmb Smn1tm1Msd/J assessed as increase in SMN protein level in quadriceps at 0.3 mg/kg, ip qd administered from postnatal day 3 to postnatal day 9 measured 1 hr after last dose by HTRF assay relative to control; assay type: functional; set-up: scale not given: the % may be the effect or the level left
Mus musculus [31] = test: as §1, with “brain” for “quadriceps”; assay type: functional; set-up: scale not given: the % may be the effect or the level left
Mus musculus [32] = test: as §1, with “brain” for “quadriceps”, “1” for “0.3”; assay type: functional; set-up: scale not given: the % may be the effect or the level left
Mus musculus [33] = test: as §1, with “administered” for “at 0.3 mg/kg,”, “dosed” for “administered”, “assay” for “assay relative to control”; assay type: functional, organism-based
Mus musculus [34] = test: Inhibition of mRNA splicing of SMN2 exon 7 in neonatal delta7 mouse harboring FVB.Cg-Tg(SMN2 delta7)4299Ahmb Tg(SMN2)-89Ahmb Smn1tm1Msd/J assessed as increase in SMN protein level in brain administered ip qd dosed from postnatal day 3 to postnatal day 9 measured 1 hr after last dose by HTRF assay; assay type: functional, organism-based

SMILES	EC1.5 (Homo sapiens [1]) [nM]	Activity [2]	Activity [3]	Activity [4]	Activity [5]	Activity [6]	EC1.5 (Homo sapiens [7]) [nM]	logD at 24 h [8]	efflux ratio (P-gp (ABCB1))	clearance [9] [mL/min/kg]	half-life [10] [h]	bioavailability [11] [%]	clearance [12] [mL/min/kg]	Vd [13] [L/kg]	half-life [14] [h]	bioavailability [15] [%]	fraction unbound [16]	fraction unbound [17]	fraction unbound [18]	fraction unbound [19]	other results
Cc1cn2cc(-c3cc(=O)n4cc(N5CCN(C)CC5)ccc4n3)cc(F)c2n1	40	Non-Toxic	Non-Toxic	Non-Toxic	Non-Toxic	Non-Toxic	32	2.3	1.9	61	4	100	9.7	2.4	2.9	84	0.22	0.18	0.16	0.17	AUC [20]: 2700 ng·h/mL; fAUC [21]: 450 ng·h/mL; Activity (Mus musculus [22]): 42%; Activity (Mus musculus [23]): 60%; Activity (Mus musculus [24]): 141%; Activity (Mus musculus [25]): 40%; Activity (Mus musculus [26]): 81%; Activity (Mus musculus [27]): 126%; inhibition (Mus musculus [28]): Dose-dependent effect; inhibition (Mus musculus [29]): Dose-dependent effect; Activity (Mus musculus [30]): 189%; Activity (Mus musculus [31]): 116%; Activity (Mus musculus [32]): 159%; inhibition (Mus musculus [33]): Dose-dependent effect; inhibition (Mus musculus [34]): Dose-dependent effect
CCc1nc(C)cn2nc(-c3cc(=O)n4cc(C5CCN(C)CC5)cc(C)c4n3)cc12	87	Non-Toxic	Non-Toxic	Non-Toxic	Non-Toxic	Non-Toxic	23	2.26	2	18	12	83	5	20	40 to 60	52	0.13	0.16	0.17	0.02	AUC [20]: 33000 ng·h/mL; fAUC [21]: 660 ng·h/mL; Activity (Mus musculus [22]): 7%; Activity (Mus musculus [23]): 19%; Activity (Mus musculus [24]): 122%; Activity (Mus musculus [25]): 30%; Activity (Mus musculus [26]): 57%; Activity (Mus musculus [27]): 94%; inhibition (Mus musculus [28]): Dose-dependent effect; inhibition (Mus musculus [29]): Dose-dependent effect; Activity (Mus musculus [30]): 40%; Activity (Mus musculus [31]): 20%; Activity (Mus musculus [32]): 55%; inhibition (Mus musculus [33]): Dose-dependent effect; inhibition (Mus musculus [34]): Dose-dependent effect
Cc1cn2cc(-c3cc(=O)n4cc(N5CCN(C)CC5)ccc4n3)cc(C)c2n1	14 to 55	Non-Toxic	Non-Toxic	Non-Toxic	Non-Toxic	Non-Toxic	7	2.49	2.4	38	6	55 to 100	7.5	4.3	8	100	0.11	0.08	0.1	0.16	AUC [20]: 2500 ng·h/mL; fAUC [21]: 400 ng·h/mL; Activity (Mus musculus [22]): 0%; Activity (Mus musculus [23]): 0%; Activity (Mus musculus [24]): 39%; Activity (Mus musculus [25]): 28%; Activity (Mus musculus [26]): 70%; Activity (Mus musculus [27]): 133%; inhibition (Mus musculus [28]): Dose-dependent effect; inhibition (Mus musculus [29]): Dose-dependent effect; Activity (Mus musculus [30]): 31%; Activity (Mus musculus [31]): 39%; Activity (Mus musculus [32]): 130%; inhibition (Mus musculus [33]): Dose-dependent effect; inhibition (Mus musculus [34]): Dose-dependent effect
